Bridge positions count the residues as written; N and C are the ends. Ends that are not written are not given here. I, II: the chains in the order shown.
Assays:
individual human sera = experiment: ELISA plate seroreactivity of individual human sera (LTNP, HIV chronically infected, blood donors); format: binding; settings: FIG. 2, OD
Description: Seroreactivities of individual LTNP patient sera to SEQ ID NO: 47 (16 μg) alone and in combination with SEQ ID NO: 6 (16 μg) were determined using an ELISA plate as a solid support. Sheep anti-C5 antibodies were used as a positive control. Optical density (OD) at […] was used as a read out following the enzymatic reaction from protein G coupled to alkaline phosphatase.

[1] = tested on: sera from rabbits immunized with BI400-B binding to C5/gp41 (015/201); experiment: Competitive ELISA for rabbit sera after immunization with BI400-B; settings: for inhibition of antibody binding to C5/gp41 (015/201): antigen 10-1000 μM preincubated with rabbit serum 4° C. overnight, FIG. 3
Description: 50-100 μl of a mixture of BI400-015 and -201 (pre-incubated in Coating buffer—0.05M Na2CO3 pH9.6; denoted CB—in cold at 16 μg/ml for each peptide 1-3 days prior to coating) or just CB (background control) was used for coating wells in microtiter plates at 4° C. overnight. Plates were then washed 3× with washing buffer (PBS+1% v/v Triton-X100; denoted WB), followed by 2 h blocking at room temperature (RT) with 200 μl/well of blocking buffer (PBS+1% w/v BSA). Plates were then washed 3× with WB, followed by 1 h incubation at 37° C. with 60-100 μl/well of added rabbit serum samples (diluted 1:10-1:250 final concentration) preincubated together (4° C. overnight) with serial dilutions (ranging from 10-1000 μM final concentration) of 400-SEQ.B, BI400-015, BI400-201, BI400-204d, recombinant gp41 (Shin-Won Scientific, SWO 102 gp41), BI301-23 (irrelevant protein; control), no peptide (i.e. PBS; control), LTNP-sera pools (diluted 1:10 final concentration), or Blood donor sera-pools (diluted 1:10 final concentration; control). Plates were then washed 6× with WB, followed by 1 h incubation at RT with 70 μl/well of Alkaline Phosphatase-conjugated Goat-anti-Rabbit-Ig (6 μg/ml; Dako D0487). Plates were then washed 6× with WB, followed by 10-60 min incubation at RT with 100 μl/well of 0.3% w/v of Phenoftalein monophosphate (Sigma P-5758). Plates were finally quenched by adding 100 μl/well of Quench solution (0.1M TRIS+0.1M EDTA+0.5M NaOH+0.01% w/v NaN3; pH14), followed by ELISA reader (ASYS UVM 340) at 550 nm.

C5/gp41 (015/201) = experiment: Rabbit immunization with BI400-B vaccine, serum ELISA; format: in vivo; settings: rabbits immunized intradermally weeks 0, 2 & 6, 500 μg in Freund's adjuvant; in the presence of PBS; FIG. 3
Description: New Zealand White female rabbits (n=3) were immunized intradermally at weeks 0, 2 & 6 with 1 ml of BI400-B vaccine consisting of 500 μg BI400-B in 50% V/V Freund's adjuvant (i.e. Complete Freund's adjuvant used for priming, followed by boostings with Incomplete Freund's adjuvant). Individual blood serum was isolated for ELISA.
50-100 μl of a mixture of BI400-015 and -201 (pre-incubated in Coating buffer—0.05M Na2CO3 pH9.6; denoted CB—in cold at 16 μg/ml for each peptide 1-3 days prior to coating) or just CB (background control) was used for coating wells in microtiter plates at 4° C. overnight. Plates were then washed 3× with washing buffer (PBS+1% v/v Triton-X100; denoted WB), followed by 2 h blocking at room temperature (RT) with 200 μl/well of blocking buffer (PBS+1% w/v BSA). […] Plates were finally quenched by adding 100 μl/well of Quench solution (0.1M TRIS+0.1M EDTA+0.5M NaOH+0.01% w/v NaN3; pH14), followed by ELISA reader (ASYS UVM 340) at 550 nm.

Row | Substance | magnitude of response among LTNP patients compared to patients chronically infected with HIV (individual human sera; individual sera) | responses in blood donors (individual human sera; negative control sera) | inhibition of antibody binding to C5/gp41 (015/201) [1] | binding of sera from immunized rabbits to C5/gp41 peptides (C5/gp41 (015/201)) | cross competition of anti-C5/gp41 rabbit sera by LTNP-sera pools ([1]; LTNP-sera pools diluted 1:10, FIG. 4)
1 | APTKAKRRVVQREKR (Artificial sequene) [SEQ ID NO: 47] | greater response | consistently low | – | – | –
2 | 201: gp41 peptide (DRPEGIEEEGGERDR) [compound 201] | – | – | could be inhibited | – | –
3 | BI400-B: SEQ ID NO: 38 and SEQ ID NO: 39 linked via Cys and Lys residues; vaccine antigen (chain 1 GAKRRVVGGCGGAKRRVVQREKRAGEREKRA; chain 2 GKGGIEEEGGRDRDRGGEQDRDR; bridge I:10-II:2 (inferred)) | – | – | could be inhibited | bound to peptides corresponding to C5/gp41 (015/201) | competitively inhibited
4 | GGAIVNGSLADDDIVI [204d, peptide derived from C2] | – | – | could be inhibited | – | –

Source: US10251949B2, “Stabilized HIV-1 peptide constructs comprising the gp120 C5 domain and gp41 hydrophilic domain” (Bionor Immuno AS, priority 2009, dated 2019)
